Values of other authors, collected in patent US20190117852A1, “IMPROVEMENTS IN STENTS FOR THE RELEASE OF ACTIVE PRINCIPLES” (CID S.p.A., priority 2016, published 2019).

Conditions: duration of release; correlated to complete in vitro release at 30 hours

in vivo release after coronary implantation: greater than 30 days
SMILES: CO[C@H]1C[C@@H]2CC[C@@H](C)[C@@](O)(O2)C(=O)C(=O)N2CCCC[C@H]2C(=O)O[C@H]([C@H](C)C[C@@H]2CC[C@@H](O)[C@H](OC)C2)CC(=O)[C@H](C)/C=C(\C)[C@@H](O)[C@@H](OC)C(=O)[C@H](C)C[C@H](C)/C=C/C=C/C=C/1C [Sirolimus]
